Key:
[1] = Excitation and fluorescence wavelengths by fluorescence spectrometer FL4500; format: physicochemical; settings: aqueous solution: 10 mg/mL DMSO solution diluted to 1/500 with purified water (Examples 1 to 94); in nm (unit assumed)
[2] = tested on: photoreceptor cell layer in tissue section of the Zebrafish eyeball; assay: Stained slide of frozen tissue section of Zebrafish eyeball, co-staining with anti-Zpr-1 or anti-Zpr-3 antibody
Description: After an eyeball of a fry of Zebrafish 7-day-old embryo (7 dpf) was immobilized with a PBS solution of 4% paraformaldehyde (PFA), the solution was replaced by a PBS solution of 30% sucrose, and the eyeball was embedded in an OCT compound (product of Tissue-Tek Co.) and frozen with liquid nitrogen. The frozen sample was sliced into a 7-1 μm section by Cryostat (Tissue•Tek Cryo 3, manufactured by Sakura Finetek Japan Co., Ltd.) and extended on a MAS-coated slide glass (product of […] GLASS IND., LTD) to obtain a tissue section slide of the Zebrafish eyeball. The slide glass was treated with a blocking solution (Blocking One, product of Nakarai Co.) for 30 minutes at room temperature, and an anti-Zpr-1 antibody (which stains red and green cone cells) diluted with PBS was mounted as a primary antibody on the slide glass and treated for 12 hours at 4° C. The slide glass was then washed 3 times with PBST for 10 minutes, and a secondary antibody (Alexa 488-anti-mouse IgG antibody) and 1 μg/mL of Compound 5 were diluted with PBS and mounted on the slide glass for 1 hour at room temperature. The slide glass was washed 3 times with PBST for 10 minutes, Fluoromount G (product of Southem Biotechnology Co.) was mounted thereon, and a cover glass was placed thereon. The thus-obtained stained slide of the tissue section of the Zebrafish eye ball was observed through a confocal microscope.
A stained slide of a tissue section of a Zebrafish eye ball was prepared according to the same process as in Example 120 except that the primary antibody used in Example 120 was changed to an anti-Zpr-3 antibody (which stains rod cells), and observed through a confocal microscope.

[3] = tested on: intraocular tissue (retinal tissue incl. photoreceptor cell layer, vitreous body) of Zebrafish 7-day-old embryo; assay: Staining of intraocular tissue of Zebrafish fry by exposure to staining liquid, ocular tissue section observed by confocal microscope; format: in vivo; settings: Zebrafish 7 dpf fry, 1 μg/mL, 1 hour exposure, fixed ocular section
[4] = tested on: fundus (retina) of Zebrafish fry; assay: In vivo intraocular observation of the fundus of living Zebrafish fry by confocal microscope; settings: 1 μg/mL, 1 hour exposure;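 also: +++ photoreceptor and inner retinal layers stained ++ mainly photoreceptor layer − none seen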
Protocol: In an arbitrary well of a 24-well multiplate, were put 1 mL of Staining Liquid 2 and a fry of Zebrafish, and the plate was left to stand for 1 hour. A process of removing Staining Liquid 2 in the well and replacing it by 1 mL of distilled water was then performed 3 times.
The fry was then put in a 0.7% agarose solution and placed on a slide glass to observe the fundus of the fry through a confocal microscope.

[5] = tested on: retina of B10 mouse; assay: Staining of mouse intraocular tissue after administration to the abdominal cavity; format: in vivo; settings: 3-month-old B10 mouse, 0.2 mL of 10 mg/mL supernatant to abdominal cavity, eyeball taken after 1 hour
Protocol: Staining compound 81 was added to an equimolar amount of a NaOH solution so as to give a concentration of 10 mg/mL, and the resultant mixture was centrifuged for 5 minutes at 14 krpm to obtain a supernatant. To an abdominal cavity of a 3-month-old B10 mouse, was administered 0.2 mL of this supernatant at one time. After 1 hour, the thus-treated animal was sacrificed under anesthesia by diethyl ether, and an eyeball thereof was taken out. The eyeball taken was embedded in an OCT compound and frozen in isopentane chilled with liquid nitrogen. This eyeball was sliced into a thickness of about 5 μm in a cryostat chilled to −20° C., and this slice was placed on a slide glass and dried to prepare a section of an ocular tissue. The thus-prepared ocular tissue section was observed through a confocal microscope (Pascal Exciter, manufactured by Zeiss Co.).

| SMILES | λem (fluorescence wavelength) [1] | λex (excitation wavelength) [1] | Overlap of stained images with anti-Zpr-1 antibody (red and green cone cells) in the photoreceptor cell layer ([2]; Example 120, 1 μg/mL on frozen section) | Overlap of stained images with anti-Zpr-3 antibody (rod cells) in the photoreceptor cell layer ([2]; Example 121, 1 μg/mL on frozen section) | Selectivity of staining within the photoreceptor cell layer ([2]; Examples 120 and 121) | Staining of photoreceptor cell layer and of red and green cone cells ([2]; conclusion from Example 120) | Cell types stained in the photoreceptor cell layer ([2]; conclusion from Example 121) | Staining ability [3] | Result of observation (staining ability, in vivo fundus) [4] | Staining ability to the retina [5] |
| --- | --- | --- | --- | --- | --- | --- | --- | --- | --- | --- |
| CCN(CC)c1ccc2cc3c(oc2c1)c(C#N)c(=N)n1c2ccccc2nc31 [Compound 5] | 577 | 556 | did not overlap | partially overlapped | selectively stains a part of the cell types in the photoreceptor cell layer or of the cell bodies existing in the photoreceptor cell layer | has staining ability to the photoreceptor cell layer but does not stain the red and green cone cells in the photoreceptor cell layer | has stained the rod cells and at least one kind of cell type of blue or ultraviolet cone cells | +++ | +++ | – |
| CCN1c2ccc(/C=C3/SC(=S)N(CCC(=O)O)C3=O)cc2C2CCCC21 (centres unmarked) [Compound 81] | 604 | 576 | – | – | – | – | – | ++ | +++ | has staining ability to the retina |
